Publication PMC8592230 (Food Chemistry, 2021)

Key:
SARS-CoV-2 3CL^pro [1] = molecular target: T1, SARS-CoV-2 3CL^pro (Severe acute respiratory syndrome coronavirus 2, UniProt P0DTD1); assay: FRET dose-response 3CL^pro inhibition assay; assay type: biochemical
SARS-CoV-2 3CL^pro [2] = molecular target: T1, SARS-CoV-2 3CL^pro; assay: Surface plasmon resonance binding to immobilised 3CL^pro
SARS-CoV-2 3CL^pro [3] = molecular target: T1, SARS-CoV-2 3CL^pro; assay: Initial FRET screening for 3CL^pro inhibition at 10 µM polyphenol; assay type: biochemical; conditions: 0.1 µM 3CL^pro, 16 µM FRET substrate, after 10 min

Row | Compound | IC50 (SARS-CoV-2 3CL^pro [1]) [µM] | Kd (SARS-CoV-2 3CL^pro [2]) [µM] | SPR binding to immobilised 3CL^pro (in words) (SARS-CoV-2 3CL^pro [2]; SPR, up to 200 µM polyphenol, 25 °C) | inhibition of 3CL^pro (SARS-CoV-2 3CL^pro [3])
1 | O=c1oc2c(O)c(O)cc3c(=O)oc4c(O)c(O)cc1c4c23 [Ellagic acid] | 11.8 | 311 ± 69 |  | 
2 | Oc1ccc(/C=C/c2cc(O)cc(O)c2)cc1 [Resveratrol] | 16.9 |  | non-specific binding | 
3 | COc1cc(C(=O)O)cc(OC)c1O [Syringic acid] |  |  |  | no inhibition at all
